Measurements from publication PMC7278776, “Multidrug Resistance Modulation Activity of Silybin Derivatives and Their Anti-Inflammatory Potential” (Antioxidants, 2020).
Read-outs that look alike come from different tables or passages of the source. Marks after values point to notes of the source that are not given here.

Key:
[1] = tested on: TNF-α; assay: TNF-α release by LPS-induced macrophages (ELISA); type: cell-based, mouse; conditions: for IC50: Mus musculus
Description: To determine the level of inflammatory cytokine TNF-α, macrophages were pre-cultivated with the tested compounds (12.5–50 µM) for 24 h. Thereafter, the plates were washed with PBS and new MEM medium enriched with LPS (1 µg/mL) was added to the wells. After 2 h of incubation, the plates were centrifuged (1000× g; 10 min, 4 °C) and then the medium was removed and frozen to −80 °C. Prior to the detection, the samples were diluted in ELISA diluent in a 1:10 ratio. […]

[2] = tested on: IL-6; assay: IL-6 release by LPS-induced macrophages (ELISA); type: cell-based, mouse; conditions: for IL-6 (pg/mL): untreated LPS control 1148 ± 35
Description: To determine the level of inflammatory cytokine IL-6, macrophages were cultivated with LPS (1 µg/mL) and the tested compounds (7–50 µM) for 6 h. After incubation, the plates were centrifuged (1000× g; 10 min, 4 °C) and then the medium was removed and frozen to −80 °C. Prior to the detection, the samples were diluted in ELISA diluent in a 1:10 ratio. Production of the cytokine was determined by uncoated ELISA performed according to the manufacturer’s instructions.

[3] = tested on: ABCB9; assay: ABCB9 mRNA expression (real-time PCR); type: cell-based, human; conditions: A2780/DOX, 10 µM combined with doxorubicin at IC25, 48 h
Description: (§1) The A2780/DOX cell line was seeded into 5 cm Petri dishes with DMEM medium at 1 × 10^5 cell/mL. After 24 h, the dishes were washed with PBS and new DMEM medium supplemented with doxorubicin (at concentration equal to IC25) and samples (10 µM) were added. After 48 h of treatment, the cells were washed with PBS and harvested using the standard trypsin-EDTA procedure. The harvested cells were centrifuged (3200× g; 10 min, 4 °C). The supernatant was discarded, and the pellets were washed with 1.5 mL of cooled PBS (5400× g; 10 min, 4 °C). The washing step was repeated with 1 mL of PBS and the cells were centrifuged again (10,000× g; 3 min, 4 °C). Afterwards, the pellets were resuspended in 1 mL of Trizol (Invitrogen, Carlsbad, CA, USA) and transferred into pre-cooled RNase-free microfuge tubes. The samples were stored at −80 °C.
(§2) A Quant-iT RiboGreen RNA Assay Kit (Invitrogen) was used to determine the RNA concentration using the Infinite M200 plate reader (Tecan, Männedor, Switzerland). The cDNA was prepared from 0.5 µg of total RNA using a RevertAid First Strand Synthesis cDNA Kit (MBI Fermentas, Vilnius, Lithuania). The amplification of the ubiquitin C gene fragment was used to determine the quality of cDNA.
(§3) The experiment was performed using the ViiA7 Real-Time polymerase chain reaction (PCR) System (Life Technologies, Camarillo, CA, USA) with a 384-well block. Before quantitative real-time PCR, the master mix was prepared by mixing 2 µL of 8 × diluted cDNA, 1.75 µL of RNase free water, 1 µL of 5 × HotFIREPol Probe quantitative PCR Mix Plus (Solis Biodyne, Tartu, Estonia) and 0.25 µL of specific 20 × TaqMan Gene Expression Assay (Life Technologies), giving 5 µL of final reaction volume. Cycling parameters were: initial hold at 50 °C for 2 min and denaturation at 95 °C for 10 min, followed by 45 cycles consisting of denaturation at 95 °C for 15 s and annealing/extension at 60 °C for 1 min. After each extension phase, the fluorescence values were acquired. Duplicate samples were used for measurement and samples with a standard deviation of duplicates > 1.0 cycle threshold (Ct) were re-analyzed. The real time PCR procedure was maintained according to MIQE (Minimum information for publication of quantitative real-time PCR experiments) guidelines. The software REST 2009 (Qiagen, Hilden, Germany) served to compare relative transcript levels of genes in the cell line.

[4] = tested on: ABCC5; assay: ABCC5 mRNA expression (real-time PCR); type: cell-based, human; conditions: A2780/DOX, 10 µM combined with doxorubicin at IC25, 48 h
Description: as §1, §2, §3

[5] = tested on: ABCB2; assay: ABCB2 mRNA expression (real-time PCR); type: cell-based, human; conditions: A2780/DOX, 10 µM combined with doxorubicin at IC25, 48 h
Description: as §1, §2, §3

[6] = tested on: ABCA2; assay: ABCA2 mRNA expression (real-time PCR); type: cell-based, human; conditions: A2780/DOX, 10 µM combined with doxorubicin at IC25, 48 h
Description: as §1, §2, §3

[7] = tested on: ABCD2; assay: ABCD2 mRNA expression (real-time PCR); type: cell-based, human; conditions: A2780/DOX
Description: as §1, with “After 24 h, the dishes were washed with PBS and new DMEM medium supplemented with doxorubicin (at concentration equal to IC25) and samples (10 µM) were added.” left out
as §2, §3

[8] = tested on: ABCC1 (MRP1); assay: ABCC1 mRNA expression (real-time PCR); type: cell-based, human; conditions: A2780/DOX, 10 µM combined with doxorubicin at IC25, 48 h
Description: as §1, §2, §3

[9] = tested on: ABCA1; assay: ABCA1 mRNA expression (real-time PCR); type: cell-based, human; conditions: A2780/DOX
Description: as §1, §2, §3

[10] = tested on: ABCD1; assay: ABCD1 mRNA expression (real-time PCR); type: cell-based, human; conditions: A2780/DOX
Description: as §1, §2, §3

[11] = tested on: ABCD3; assay: ABCD3 mRNA expression (real-time PCR); type: cell-based, human; conditions: A2780/DOX
Description: as §1, §2, §3

[12] = RAW264.7, read-out: TNF-α, concentration necessary to halve the release (IC50)
[13] = compound 12.5 µM, untreated LPS control 2954 ± 92
[14] = compound 25 µM, untreated LPS control 2954 ± 92
[15] = compound 50 µM, untreated LPS control 2954 ± 92
[16] = 10 µM combined with doxorubicin at IC25, 48 h
[17] = 10 µM, 48 h, without doxorubicin

With `COc1cc([C@H]2Oc3cc(-c4oc5cc(O)cc(O)c5c(=O)c4O)ccc3O[C@@H]2CO)ccc1O` [Dehydrosilybin A, 2,3-dehydrosilybin A] the IC50 [1, 12] was 20.7 ± 0.4 µM, the “TNF-α (pg/mL)” value [1, 13] was 2338 ± 63 ^ab pg/mL and the “decrease of release of TNF-α” value ([1]; compound 25 µM, from 2954 pg/mL to 777 pg/mL) was about 4 times. The “TNF-α (pg/mL)” value [1, 14] was 777 ± 28 ^a pg/mL, the “TNF-α” value ([1]; compound 25 µM, untreated LPS control 2954 ± 92, listed as dehydrosilybin A) was 777 pg/mL and the “TNF-α (pg/mL)” value [1, 15] was 0 ± 0 ^a pg/mL. The “TNF-α (pg/mL)” value ([1]; compound 50 µM, untreated LPS control 2954 ± 92, listed as dehydrosilybin A) was “under the detection limit of the ELISA assay”, the “IL-6 (pg/mL)” value ([2]; compound 7 µM) was 292 ± 15 ^a pg/mL and the “IL-6 (pg/mL)” value ([2]; compound 15 µM) was 79 ± 8 ^a pg/mL. The “IL-6 (pg/mL)” value ([2]; compound 50 µM) was 0 ± 0 ^a pg/mL, the “IL-6 (pg/mL)” value ([2]; compound 50 µM, listed as dehydrosilybin A) was “under the detection limit of the ELISA assay” and the “IL-6 modulation effect higher in comparison with its diastereomeric mixture” value ([2]; vs dehydrosilybin AB) was “approximately 70%”. For the same compound, the “ABCB9 Expression Difference” value [3] was 1.109, the “ABCC5 Expression Difference” value [4] was 1.116 and the “ABCB2 Expression Difference” value [5] was 5.557. The “ABCA2 Expression Difference” value [6] was 1.105, the “ABCD2 Expression Difference” value [7, 16] was 0.698 and the “ABCD2 Treated vs. Untreated” value [7, 16] was “DOWN”. For the same compound, the “ABCD2 Expression Difference” value [7, 17] was 1.205, the “ABCC1 Expression Difference” value [8] was 0.907 and the “ABCA1 Expression Difference” value [9, 16] was 4.172. For the same compound, the “ABCD1 Expression Difference” value [10, 16] was 1.435, the “ABCD1 Expression Difference” value [10, 17] was 1.063 and the “ABCD3 Expression Difference” value [11, 16] was 1.043.
For `COc1cc(C2Oc3cc(-c4oc5cc(O)cc(O)c5c(=O)c4O)ccc3OC2CO)ccc1O` (stereo not drawn) [Dehydrosilybin AB, 2,3-dehydrosilybin], the IC50 [1, 12] was 26.7 ± 0.1 µM, the “TNF-α (pg/mL)” value [1, 13] was 2617 ± 118 ^b pg/mL and the “TNF-α (pg/mL)” value [1, 14] was 2364 ± 108 ^c pg/mL. The “TNF-α (pg/mL)” value [1, 15] was 0 ± 0 ^a pg/mL, the “TNF-α (pg/mL)” value ([1]; compound 50 µM, untreated LPS control 2954 ± 92, listed as dehydrosilybin AB) was “under the detection limit of the ELISA assay” and the “IL-6 (pg/mL)” value ([2]; compound 7 µM) was 997 ± 41 ^d pg/mL. The “IL-6 (pg/mL)” value ([2]; compound 15 µM) was 441 ± 19 ^d pg/mL, the “IL-6 (pg/mL)” value ([2]; compound 50 µM) was 0 ± 0 ^a pg/mL and the “IL-6 (pg/mL)” value ([2]; compound 50 µM, listed as dehydrosilybin AB) was “under the detection limit of the ELISA assay”. The “ABCB9 Expression Difference” value [3] was 1.149, the “ABCC5 Expression Difference” value [4] was 1.288 and the “ABCB2 Expression Difference” value [5] was 5.145. For the same compound, the “ABCA2 Expression Difference” value [6] was 1.046, the “ABCD2 Expression Difference” value [7, 16] was 0.712 and the “ABCD2 Treated vs. Untreated” value [7, 16] was “DOWN”. The “ABCD2 Expression Difference” value [7, 17] was 1.199, the “ABCC1 Expression Difference” value [8] was 1.301 and the “ABCA1 Expression Difference” value [9, 16] was 3.122. The “ABCA1 Expression Difference” value [9, 17] was 1.803, the “ABCD1 Expression Difference” value [10, 16] was 1.412 and the “ABCD3 Expression Difference” value [11, 16] was 1.288. The “ABCD3 Expression Difference” value [11, 17] was 1.545.
In the case of `COc1cc([C@@H]2Oc3cc(-c4oc5cc(O)cc(O)c5c(=O)c4O)ccc3O[C@H]2CO)ccc1O` [Dehydrosilybin B, 2,3-dehydrosilybin B], the IC50 [1, 12] is reported as 44.2 ± 0.3 µM, the “TNF-α (pg/mL)” value [1, 13] is reported as 2528 ± 171 ^b pg/mL and the “TNF-α (pg/mL)” value [1, 14] is reported as 2774 ± 84 ^d pg/mL. The “TNF-α (pg/mL)” value [1, 15] was 982 ± 25 ^c pg/mL, the “IL-6 (pg/mL)” value ([2]; compound 7 µM) was 582 ± 19 ^c pg/mL and the “IL-6 (pg/mL)” value ([2]; compound 15 µM) was 301 ± 9 ^c pg/mL. For the same compound, the “IL-6 (pg/mL)” value ([2]; compound 50 µM) was 122 ± 3 ^b,c pg/mL, the “ABCB9 Expression Difference” value [3] was 1.218 and the “ABCC5 Expression Difference” value [4] was 1.385. The “ABCB2 Expression Difference” value [5] was 9.286, the “ABCA2 Expression Difference” value [6] was 1.078 and the “ABCD2 Expression Difference” value [7, 16] was 0.733. For the same compound, the “ABCD2 Treated vs. Untreated” value [7, 16] was “DOWN”, the “ABCD2 Expression Difference” value [7, 17] was 0.860 and the “ABCD2 Treated vs. Untreated” value [7, 17] was “DOWN”. The “ABCC1 Expression Difference” value [8] was 1.213, the “ABCA1 Expression Difference” value [9, 16] was 4.412 and the “ABCD1 Expression Difference” value [10, 16] was 1.784. For the same compound, the “ABCD3 Expression Difference” value [11, 16] was 1.347.
`COc1cc([C@H]2Oc3cc([C@H]4Oc5cc(O)cc(O)c5C(=O)[C@@H]4O)ccc3O[C@@H]2CO)ccc1O` [Silybin A, silybin A] was tested, and the IC50 ([1]; RAW264.7, RAW 264.7, 24 h pre-cultivation, then LPS 2 h, read-out: TNF-α, concentration necessary to halve the release (IC50)) was 29.9 ± 1.35 µM, the “TNF-α (pg/mL)” value [1, 13] was 2092 ± 48 ^a pg/mL and the “TNF-α (pg/mL)” value [1, 14] was 1476 ± 39 ^b pg/mL. For the same compound, the “TNF-α (pg/mL)” value [1, 15] was 415 ± 4 ^b pg/mL, the IC50 ([2]; Mus musculus, RAW264.7, RAW 264.7, LPS + compound 6 h, read-out: IL-6, concentration necessary to halve the release (IC50)) was 8.4 ± 0.3 µM and the “IL-6 (pg/mL)” value ([2]; compound 7 µM) was 422 ± 42 ^b pg/mL. The “IL-6 (pg/mL)” value ([2]; compound 15 µM) was 271 ± 15 ^c pg/mL, the “IL-6 (pg/mL)” value ([2]; compound 50 µM) was 125 ± 16 ^c pg/mL and the “ABCB9 Expression Difference” value [3] was 1.586. The “ABCC5 Expression Difference” value [4] was 1.782, the “ABCB2 Expression Difference” value [5] was 17.975 and the “ABCA2 Expression Difference” value [6] was 1.239. The “ABCD2 Expression Difference” value [7, 16] was 0.426, the “ABCD2 Treated vs. Untreated” value [7, 16] was “DOWN” and the “ABCD2 Expression Difference” value [7, 17] was 1.063. The “ABCC1 Expression Difference” value [8] was 1.711, the “ABCA1 Expression Difference” value [9, 16] was 2.702 and the “ABCD1 Expression Difference” value [10, 17] was 1.187. For the same compound, the “ABCD3 Expression Difference” value [11, 16] was 1.637.
